Data on 34 compounds can be found in US20230234943A1, “TREX1 INHIBITORS AND USES THEREOF” (Tempest Therapeutics, Inc., priority 2020, published 2023).

This assay deals with T1, Human TREX1 enzyme (amino acids 1-242) (Homo sapiens, UniProt Q9NSU2).
T1 construct: Human TREX1 enzyme (amino acids 1-242)
T1 sequence (Q9NSU2 1-242): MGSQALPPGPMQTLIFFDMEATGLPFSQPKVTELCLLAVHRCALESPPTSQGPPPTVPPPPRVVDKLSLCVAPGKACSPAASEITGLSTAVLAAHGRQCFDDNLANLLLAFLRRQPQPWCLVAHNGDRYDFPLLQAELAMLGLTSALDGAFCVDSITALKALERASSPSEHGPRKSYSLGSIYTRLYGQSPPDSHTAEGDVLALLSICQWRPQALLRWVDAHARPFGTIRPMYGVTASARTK
As to the kind of experiment: Human TREX1 enzymatic assay with dsDNA native oligonucleotide (Picogreen fluorescence). The following applies: 2 mM dithiothreitol in assay buffer; 50 nM dsDNA oligonucleotide; 30 min preincubation at 25° C.; read-out: TREX1/Human + DTT IC50 AVG. It is filed as biochemical. In short, it runs like this:
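TREX1 (0.8–0.16 nM final) preincubated with compound (300 μM–13 nM or 30 μM–1.5 nM, 2% DMSO) 30 min at 25 °C in Tris pH 7.7, 5 mM MgCl2, 2 mM DTT. Annealed dsDNA (50 nM) added for 5–15 min at 25 °C; EDTA quench with Picogreen fluorescence readout.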
For `COc1cc(-c2nc3ccccc3n2[C@H]2COC[C@@H]2O)c(C)c(O)c1O` [Example 170, 4-(1-((3S,4R)-4-hydroxytetrahydrofuran-3-yl)-1H-benzo[d]imidazol-2-yl)-6-methoxy-3-methylbenzene-1,2-diol], the IC50 lay within 10 to 100 µM.

As to `Cc1cc(C(=O)O)c(O)cc1-c1nc2ccccc2n1C1COC1` [Example 171, 2-hydroxy-5-methyl-4-(1-(oxetan-3-yl)-1H-benzo[d]imidazol-2-yl)benzoic acid], the IC50 was > 100 µM.

`COCCn1c(-c2cc(OC)c(O)c(O)c2C)nc2ccccc21` [Example 172, 6-methoxy-4-[1-(2-methoxyethyl)-1H-1,3-benzodiazol-2-yl]-3-methylbenzene-1,2-diol]: the IC50 is > 100 µM.

Regarding `CCc1c(-c2nc3ccccc3n2C2(C)COC2)cc(OC)c(O)c1O` [Example 173, 3-ethyl-6-methoxy-4-[1-(3-methyloxetan-3-yl)-1H-1,3-benzodiazol-2-yl]benzene-1,2-diol], the IC50 was 10 to 100 µM. Next, `COc1ccc2c(c1)nc(-c1cc(OC)c(O)c(O)c1C)n2C1CCC1` [Example 176, 4-(1-cyclobutyl-5-methoxy-1H-1,3-benzodiazol-2-yl)-6-methoxy-3-methylbenzene-1,2-diol]: 0.1 to 1 µM.

For the compound `COc1cc(-c2nc3ccc(C(=O)N4CCC4)cc3n2C2(C)COC2)c(F)c(O)c1O` [Example 177, 4-[6-(azetidine-1-carbonyl)-1-(3-methyloxetan-3-yl)-1H-1,3-benzodiazol-2-yl]-3-fluoro-6-methoxybenzene-1,2-diol], the IC50 lay in the range of 0.1 to 1 µM. In the case of `COc1cc(-c2nc3ccc(-c4ncno4)cc3n2C2(C)COC2)c(F)c(O)c1O` [Example 181, 3-fluoro-6-methoxy-4-[1-(3-methyloxetan-3-yl)-6-(1,2,4-oxadiazol-5-yl)-1H-1,3-benzodiazol-2-yl] benzene-1,2-diol] it was ≤ 0.1 µM. `COc1cc(-c2nc3ccc(-c4ccccn4)cc3n2C2(C)COC2)c(F)c(O)c1O` [Example 182, 3-fluoro-6-methoxy-4-[1-(3-methyloxetan-3-yl)-6-(pyridin-2-yl)-1H-1,3-benzodiazol-2-yl]benzene-1,2-diol]: the IC50 was in the range of 0.1 to 1 µM. Next, `COc1cc(-c2nc3cc(O)ccc3[nH]2)c(C)c(O)c1O` [Example 183, 4-(5-hydroxy-1H-1,3-benzodiazol-2-yl)-6-methoxy-3-methylbenzene-1,2-diol]: 10 to 100 µM; `COc1cc(-c2nc3ccc(-n4cccn4)cc3n2C2(C)COC2)c(F)c(O)c1O` [Example 184, 3-fluoro-6-methoxy-4-[1-(3-methyloxetan-3-yl)-6-(1H-pyrazol-1-yl)-1H-1,3-benzodiazol-2-yl]benzene-1,2-diol]: ≤ 0.1 µM.

As for `COc1cc(-c2nc3ccc(C(C)(C)O)cc3n2C2(C)COC2)c(F)c(O)c1O` [Example 185, 3-fluoro-4-[6-(2-hydroxypropan-2-yl)-1-(3-methyloxetan-3-yl)-1H-1,3-benzodiazol-2-yl]-6-methoxybenzene-1,2-diol], the IC50 lay in the range of 1 to 10 µM. In the case of `CNCc1ccc2nc(-c3cc(OC)c(O)c(O)c3F)n(C3(C)COC3)c2c1` [Example 186, 3-fluoro-6-methoxy-4-(6-((methylamino)methyl)-1-(3-methyloxetan-3-yl)-1H-benzo[d]imidazol-2-yl)benzene-1,2-diol] it was 1 to 10 µM; in that of `COc1cc(-c2nc3cc(N4CCC4)ccc3n2C2COC2)c(C)c(O)c1O` [Example 187, 4-(5-(azetidin-1-yl)-1-(oxetan-3-yl)-1H-benzo[d]imidazol-2-yl)-6-methoxy-3-methylbenzene-1,2-diol], 1 to 10 µM; in that of `COc1cc(-c2nc3cc(N4CCC4)ccc3n2C2COC2)c(F)c(O)c1O` [Example 188, 4-(5-(azetidin-1-yl)-1-(oxetan-3-yl)-1H-benzo[d]imidazol-2-yl)-3-fluoro-6-methoxybenzene-1,2-diol], 1 to 10 µM. Take `COc1cc(-c2nc3cc(N4CCC4)ccc3[nH]2)c(C)c(O)c1O` [Example 189, 4-(5-(azetidin-1-yl)-1H-benzo[d]imidazol-2-yl)-6-methoxy-3-methylbenzene-1,2-diol]: the IC50 fell in the range of 1 to 10 µM. Next, `COc1cc(-c2nc3cc(N4CCCC4=O)ccc3n2C2(C)COC2)c(F)c(O)c1O` [Example 190, 1-[2-(2-fluoro-3,4-dihydroxy-5-methoxyphenyl)-1-(3-methyloxetan-3-yl)-1H-1,3-benzodiazol-5-yl]pyrrolidin-2-one]: 0.1 to 1 µM.

Take `COc1cc(-c2nc3cc(N4CCCC4=O)ccc3n2C2COC2)c(F)c(O)c1O` [Example 191, 1-(2-(2-fluoro-3,4-dihydroxy-5-methoxyphenyl)-1-(oxetan-3-yl)-1H-benzo[d]imidazol-5-yl)pyrrolidin-2-one]: the IC50 was in the range of 10 to 100 µM. In the case of `COc1cc(-c2nc3cc(Nc4ccccc4)ccc3n2C2(C)COC2)c(F)c(O)c1O` [Example 192, 3-fluoro-6-methoxy-4-[1-(3-methyloxetan-3-yl)-5-(phenylamino)-1H-1,3-benzodiazol-2-yl]benzene-1,2-diol] it was ≤ 0.1 µM; in that of `COc1cc(-c2nc3cc(N4CCC4)ccc3n2C2CCC2)c(C)c(O)c1O` [Example 193], 0.1 to 1 µM.

As to `COc1cc(-c2nc3ccc(-c4cn[nH]c4)cc3n2C2(C)COC2)c(F)c(O)c1O` [Example 194], the IC50 is ≤ 0.1 µM.

Take `COc1cc(-c2nc3cc(N(C)C(C)=O)ccc3n2C2(C)COC2)c(F)c(O)c1O` [Example 195]: the IC50 is 0.1 to 1 µM. Regarding `COC(=O)c1cc(-c2nc3cc(N4CCC4)ccc3[nH]2)cc(OC)c1O` [Example 196, methyl 5˜(5-(azetidin-1-yl)-1H-benzo[d]imidazol-2-yl)-2-hydroxy-3-methoxybenzoate], the IC50 was > 100 µM. As for `COc1cc(-c2nc3cc(N4CCN(C)C4=O)ccc3n2C2(C)COC2)c(F)c(O)c1O` [Example 197, 1-(2-(2-fluoro-3,4-dihydroxy-5-methoxyphenyl)-1-(3-methyloxetan-3-yl)-1H-benzo[d]imidazol-5-yl)-3-methylimidazolidin-2-one], the IC50 is 0.1 to 1 µM. In the case of `COc1cc(-c2nc3cc(N4CCNC4=O)ccc3n2C2(C)COC2)c(F)c(O)c1O` [Example 198, 1-(2-(2-fluoro-3,4-dihydroxy-5-methoxyphenyl)-1-(3-methyloxetan-3-yl)-1H-benzo[d]imidazol-5-yl)imidazolidin-2-one] it was ≤ 0.1 µM; in that of `COc1c(C)c(-c2nc3cc(N4CCC4)ccc3n2C2COC2)c(F)c(O)c1O` [Example 199, 4-[5-(azetidin-1-yl)-1-(oxetan-3-yl)-1H-1,3-benzodiazol-2-yl]-3-fluoro-6-methoxy-5-methylbenzene-1,2-diol], 1 to 10 µM. In the case of `COc1c(C)c(-c2nc3cc(N4CCC4)ccc3n2C2CCC2)c(F)c(O)c1O` [Example 200, 4-[5-(azetidin-1-yl)-1-cyclobutyl-1H-1,3-benzodiazol-2-yl]-3-fluoro-6-methoxy-5-methylbenzene-1,2-diol], the IC50 lay in the range of 1 to 10 µM. On to `COc1c(C)c(-c2nc3ccccc3n2C2(C)COC2)cc(O)c1O` [Example 201, 3-methoxy-4-methyl-5-[1-(3-methyloxetan-3-yl)-1H-1,3-benzodiazol-2-yl]benzene-1,2-diol], for which the IC50 lay in the range of 10 to 100 µM.

With `COc1cc(-c2nc3c(Cl)c(Cl)ccc3[nH]2)c(F)c(O)c1O` [Example 202, 4-(6,7-dichloro-1H/benzo[d]imidazol-2-yl)-3-fluoro-6-methoxybenzene-1,2-diol], the IC50 is > 100 µM. In the case of `COc1cc(-c2nc3cc(NC(=O)c4ccccn4)ccc3n2C2(C)COC2)c(F)c(O)c1O` [Example 203, N-[2-(2-fluoro-3,4-dihydroxy-5-methoxyphenyl)-1-(3-methyloxetan-3-yl)-1H-1,3-benzodiazol-5-yl]pyridine-2-carboxamide] it was ≤ 0.1 µM; in that of `COc1cc(-c2nc3cc(NC(=O)C4CC4)ccc3n2C2(C)COC2)c(F)c(O)c1O` [Example 204, N-[2-(2-fluoro-3,4-dihydroxy-5-methoxyphenyl)-1-(3-methyloxetan-3-yl)-1H-1,3-benzodiazol-5-yl]cyclopropanecarboxamide], ≤ 0.1 µM. Consider `COc1cc(-c2nc3ccc(C(=O)NC4CC(F)(F)C4)cc3n2C2(C)COC2)c(F)c(O)c1O` [Example 205, N-(3,3-difluorocyclobutyl)-2-(2-fluoro-3,4-dihydroxy-5-methoxyphenyl)-1-(3-methyloxetan-3-yl)-1H-benzo[d]imidazole-6-carboxamide], for which the IC50 is ≤ 0.1 µM. Turning to `COc1cc(-c2nc3cc(NC(=O)c4cnoc4)ccc3n2C2(C)COC2)c(F)c(O)c1O` [Example 206, N-(2-(2-fluoro-3,4-dihydroxy-5-methoxyphenyl)-1-(3-methyloxetan-3-yl)-1H-benzo[d]imidazol-5-yl)isoxazole-4-carboxamide], the IC50 was in the range of 0.1 to 1 µM. Next, `COc1cc(-c2nc3ccc(NC(C)=O)cc3n2C2(C)COC2)c(F)c(O)c1O` [Example 207, N-[2-(2-fluoro-3,4-dihydroxy-5-methoxyphenyl)-1-(3-methyloxetan-3-yl)-1H-1,3-benzodiazol-6-yl]acetamide]: ≤ 0.1 µM; `COc1cc(-c2nc3c(NC(C)=O)cccc3n2C2(C)COC2)c(F)c(O)c1O` [Example 209, N-[2-(2-fluoro-3,4-dihydroxy-5-methoxyphenyl)-1-(3-methyloxetan-3-yl)-1H-1,3-benzodiazol-4-yl]acetamide]: 0.1 to 1 µM.
